Measurements reported in ChEMBL document CHEMBL3352354, “Novel FTY720-Based Compounds Stimulate Neurotrophin Expression and Phosphatase Activity in Dopaminergic Cells” (ACS Med Chem Lett, 2014).
The source made the active and inactive calls. The rule behind the calls is not given here.

Experiments:
[1] = species: Homo sapiens; test: Induction of recombinant PP2A catalytic subunit (unknown origin) activity assessed as phosphate level at 5 uM relative to control
[2] = tested on: MN9D; test: Induction of PP2A catalytic subunit activity in mouse MN9D cells assessed as phosphate level at 5 uM; format: cell-based
[3] = Cytotoxicity against mouse MN9D cells assessed as metabolic activity at > 1.5 uM after 72 hrs by MTS assay; format: ADME, cell-based
[4] = Neuroprotective activity in mouse MN9D cells assessed as cell division at 0.04 to 0.16 uM after 72 hrs by DAPI staining (reference value: 100 +/- 4.15%); format: functional
[5] = Neuroprotective activity in mouse MN9D cells assessed as stimulation of BDNF expression at 0.16 uM after 24 hrs; format: functional, cell-based
[6] = tested on: MN9D; test: Neuroprotective activity in mouse MN9D cells assessed as blocking of TNF-alpha associated toxicity at 0.16 uM after 72 hrs by Trypan blue staining; format: functional, cell-based
[7] = species: Homo sapiens; test: Induction of recombinant PP2A catalytic subunit (unknown origin) activity assessed as phosphate level using threonine-phosphopeptide at 5 uM
[8] = tested on: PC-12; test: Induction of PP2A catalytic subunit activity in rat PC12 cells assessed as phosphate level at 5 uM measured 30 to 120 mins; format: cell-based

## CCCCCCCCc1ccc(CCC(CO)(CO)NC(C)=O)cc1
[1]
  fold change (FC): 8
[2]
  Activity: Active
[3]
  Activity: Toxic
[4]
  Activity: 91.44%
[5]
  Activity: Active
[6]
  inhibition: Active

## CCCCCCCCCCCCC/C=C/[C@H](O)[C@@H](CO)NC(=O)CCCCCCCCC
[7]
  Activity: inactive

## CCCCCCCCc1ccc(CCC(CO)(CO)NC(=O)CC[P+](c2ccccc2)(c2ccccc2)c2ccccc2)cc1.[Br-]
[1]
  fold change (FC): 4
[2]
  Activity: Active
[3]
  Activity: Toxic
[4]
  Activity: 101.37%
[5]
  Activity: Active
[6]
  inhibition: Active

## CCCCCCCCCCCCC/C=C/[C@H](O)[C@@H](CO)NC(C)=O
[7]
  Activity: Active
[1]
  fold change (FC): 8

## CCCCCCCCCCCCC/C=C/[C@H](O)[C@@H](CO)NC(=O)CCCCC
[7]
  Activity: Active

## CCCCCCCCc1ccc(CCC(N)(CO)CO)cc1 [FINGOLIMOD]
[7]
  Activity: Active
[8]
  Activity: Active
[1]
  fold change (FC): 4
[2]
  Activity: Active
[3]
  Activity: Toxic
[4]
  Activity: 98%
[5]
  Activity: Active
[6]
  inhibition: Active
